Experimental data published in ChEMBL document CHEMBL4339183, “Discovery of N-indanyl benzamides as potent RORγt inverse agonists” (Eur J Med Chem, 2019).
Each block holds one compound with its values, some of them ahead of it.

Assays:
[1] = molecular target: T1, Nuclear receptor ROR-gamma (Homo sapiens, UniProt P51449); assay: Inverse agonist activity at APC-labeled biotinylated RORgammat LBD (unknown origin) assessed as inhibition of N-(2-chloro-6-fluorobenzyl)-N-((20-methoxy-[1,10-biphenyl]-4-yl)methyl)benzenesulfonamide-induced co-activator europium-labeled biotinylated SRC1 peptide recruitment after 1 hr by LANCE-FRET assay
T1 sequence (P51449 whole entry): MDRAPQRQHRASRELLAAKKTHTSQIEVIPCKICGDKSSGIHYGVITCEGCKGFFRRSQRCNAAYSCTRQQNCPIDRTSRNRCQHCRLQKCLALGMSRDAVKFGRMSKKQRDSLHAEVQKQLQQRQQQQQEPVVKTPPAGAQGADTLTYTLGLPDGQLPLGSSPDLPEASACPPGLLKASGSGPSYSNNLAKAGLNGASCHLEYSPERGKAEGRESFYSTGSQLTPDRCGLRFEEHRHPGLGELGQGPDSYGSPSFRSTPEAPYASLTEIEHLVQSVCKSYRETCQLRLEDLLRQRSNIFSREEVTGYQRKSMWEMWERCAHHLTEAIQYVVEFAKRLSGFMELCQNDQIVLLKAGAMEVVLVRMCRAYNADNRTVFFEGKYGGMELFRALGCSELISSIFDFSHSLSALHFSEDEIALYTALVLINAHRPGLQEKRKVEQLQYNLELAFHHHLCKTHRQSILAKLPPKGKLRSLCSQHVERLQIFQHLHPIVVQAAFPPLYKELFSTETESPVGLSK

[2] = molecular target: T2, Nuclear receptor ROR-gamma (Mus musculus, UniProt P51450); assay: Inverse agonist activity at RORgammat in mouse CD4 positive T cells assessed as inhibition of Th17 cell differentiation by measuring IL-17 release after 4 days by cellular staining based flow cytometry
T2 sequence (P51450 whole entry): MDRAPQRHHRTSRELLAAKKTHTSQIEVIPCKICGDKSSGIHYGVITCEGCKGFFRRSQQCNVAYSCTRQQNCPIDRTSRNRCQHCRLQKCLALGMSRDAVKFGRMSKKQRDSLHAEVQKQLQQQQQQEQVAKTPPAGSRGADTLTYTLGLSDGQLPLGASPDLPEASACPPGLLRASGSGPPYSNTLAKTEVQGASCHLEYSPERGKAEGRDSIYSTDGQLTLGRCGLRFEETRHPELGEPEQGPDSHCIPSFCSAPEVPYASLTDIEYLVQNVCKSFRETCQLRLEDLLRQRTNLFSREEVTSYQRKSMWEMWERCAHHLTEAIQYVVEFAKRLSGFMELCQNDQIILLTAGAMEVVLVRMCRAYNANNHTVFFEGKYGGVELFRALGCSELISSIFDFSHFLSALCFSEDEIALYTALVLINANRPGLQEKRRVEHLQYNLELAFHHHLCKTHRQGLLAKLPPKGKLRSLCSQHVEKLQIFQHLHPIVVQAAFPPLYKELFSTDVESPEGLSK

IC50 [1]: Not Active
Structure (SMILES): N#Cc1cccc(C(=O)Nc2cccc3c2ccn3C2CCN(C(=O)C3CCCC3)CC2)c1

IC50 [2]: Not Active
Structure (SMILES): N#Cc1cccc(C(=O)Nc2ccc3c(c2)[C@H](N2CC4CCC(C2)N4C(=O)C2CCCCC2)CC3)c1

IC50 ([1]; read-out: IC50): > 10 µM
Structure (SMILES): O=C(CC1CCOCC1)Nc1cccc2c1CCC2N1CC2CCC(C1)N2C(=O)C1CCCC1 (stereo not drawn)
